Laboratory results: PMC9686928, “10-mer and 9-mer WALK Peptides with Both Antibacterial and Anti-Inflammatory Activities” (Antibiotics, 2022)
≈ marks a conversion by molar mass, not a printed value. Where no end group is shown, it is not given here.

Assays:
[1] = system: Staphylococcus aureus ATCC 6538p; test: microbe, parasite or virus in culture; format: cell-based; conditions: Gram-positive, broth microdilution, Luria-Bertani broth, 1–64 μg/mL two-fold serial dilutions, triplicate
Description: (§1) The antimicrobial activity of each peptide was assessed against four strains, including two Gram-positive (Bacillus subtilis ATCC 6633 and Staphylococcus aureus ATCC 6538p) and two Gram-negative bacteria (Escherichia coli ATCC 25922 and Shigella dysentariae ATCC 9752) cultured in Luria-Bertani broth media. Antibacterial susceptibility was determined as the MIC value, which was measured using the standard broth microdilution method as described previously. […] Two conventional antibiotics, ampicillin and kanamycin, were used as controls to confirm antibiotic susceptibility. The tests were performed in triplicate, and the MIC values that were reproduced twice or thrice in the three independent measurements were employed to calculate the GM value.

[2] = system: Escherichia coli ATCC 25922; test: microbe, parasite or virus in culture; format: cell-based; conditions: Gram-negative, broth microdilution, Luria-Bertani broth, 1–64 μg/mL two-fold serial dilutions, triplicate
Description: as §1

[3] = system: Bacillus subtilis ATCC 6633; test: microbe, parasite or virus in culture; format: cell-based; conditions: Gram-positive, broth microdilution, Luria-Bertani broth, 1–64 μg/mL two-fold serial dilutions, lowest concentration that completely inhibited growth, triplicate
Description: as §1

[4] = system: Shigella dysentariae ATCC 9752; test: microbe, parasite or virus in culture; format: cell-based; conditions: Gram-negative, broth microdilution, Luria-Bertani broth, 1–64 μg/mL two-fold serial dilutions, triplicate
Description: as §1

[5] = system: two Gram-positive and two Gram-negative bacterial strains; test: Antimicrobial assay, MICs over the four strains (geometric mean); format: cell-based, B. subtilis, S. aureus, E. coli, S. dysentariae; conditions: geometric mean of the MICs against the four strains
Description: as §1

[6] = system: human red blood cells; conditions: human red blood cells 10% v/v in PBS, 1 h; for MHC, minimal hemolytic concentration: lowest concentration showing 5% or more hemolysis, 1–64 μg/mL, A550, relative to 0.2% Triton X-100, triplicate; for percentage hemolysis: at 64 μg/mL, relative to 0.2% Triton X-100, average of three measurements
Description: Briefly, suspensions of human red blood cells (10% v/v in PBS) were treated for 1 h with various concentrations (1–64 μg/mL, two-fold serial dilutions) of peptides, followed by measurement of the absorbance of the supernatant at 550 nm. The relative attenuation was determined as the percentage of hemolysis compared to that of the blood suspension treated with 0.2% Triton X-100. The tests were performed in triplicate, and the average values of three independent measurements were recorded.

[7] = system: LPS-stimulated J774A.1 cells; test: Nitric oxide (NO) production, Griess reaction assay; format: cell-based, murine; conditions: LPS 100 ng/mL 16 h; for inhibitory effect against NO production: peptides 8, 4 and 2 μM, pretreatment 5 min, nitrite by Griess
Description: NT, non-treated; LPS, lipopolysaccharides. (A) Cytotoxicity was assessed using the MTT assay. […] (B) Anti-inflammatory potential deduced by NO assay.
The macrophage cells were seeded (3 × 10^4 cells/well) and incubated in 96-well plates for 24 h, followed by pretreatments with the WALK peptides at designated concentrations for 5 min and subsequent stimulation with 100 ng/mL of LPS for 16 h. The nitrite concentration in the culture medium was determined using the Griess reaction assay. Briefly, the culture supernatant (100 μL) was mixed with an equal volume of Griess reagent (1% sulfanilamide, 0.1% N-1-naphthyl ethylenediamine) and incubated for 5 min. The absorbance of the resulting chromophoric azo-derivative molecules was measured at 550 nm using a microplate reader with a fresh culture medium as a blank. The amount of nitrite in each sample was determined using a standard curve generated using a range of dilutions of sodium nitrite solutions.

[8] = system: J774A.1 cells; conditions: peptides 8, 4 and 2 μM, 16 h
Description: (A) Cytotoxicity was assessed using the MTT assay. The cells were treated with lipopolysaccharides (LPS, 100 ng/mL) or peptides (8–2 μM, two-fold serial dilutions) for 16 h, followed by estimating the cell viability as the percentage of surviving cells compared to that of the control cells.
(§2) Macrophage cells seeded in 96-well cell culture plates at a density of 3 × 10^4 cells/well were incubated for 24 h, followed by treatment with LPS or individual WALK peptides and subsequent incubation for 16 h. Cell viability was then assessed by the conventional MTT assay. Briefly, the medium in each well was replaced with 100 μL of RPMI medium containing MTT (500 μg/mL). After 2 h of incubation, the medium was discarded and the insoluble formazan in each well was dissolved in 100 μL of DMSO with shaking. The absorbance of the solution at 550 nm was measured using a spectrophotometric microplate reader to determine the percentage of cell viability relative to that of control cells.

[9] = system: RAW264.7 cells; conditions: at the concentrations tested, 16 h
Description: as §2

| Compound | MIC ([1]; Staphylococcus aureus, ATCC6538P, read-out: MIC, S. aureus) | MIC ([2]; Escherichia coli, ATCC25922) | MIC ([3]; Bacillus subtilis, ATCC6633, read-out: MIC, B. subtilis) | MIC ([4]; Shigella, ATCC9752, read-out: MIC, S. dysentariae) | geometric mean MIC ([5]; read-out: GM, geometric mean of MICs) | MIC, S. aureus [1] | MIC, E. coli [2] | MIC, B. subtilis [3] | MIC, S. dysentariae [4] | GM, geometric mean of MICs [5] | MHC, minimal hemolytic concentration [6] | NO inhibition at 8 μM ([7]; peptide 8 μM) | inhibitory effect against NO production [7] | cytotoxicity (MTT assay) [8] | cytotoxicity (MTT assay) [9] | percentage hemolysis [6] |
| --- | --- | --- | --- | --- | --- | --- | --- | --- | --- | --- | --- | --- | --- | --- | --- | --- |
| CC1(C)S[C@@H]2[C@H](NC(=O)[C@H](N)c3ccccc3)C(=O)N2[C@H]1C(=O)O [Ampicillin, ampicillin, reference compound] | ≤ 1 µg/mL | ≤ 1 µg/mL | ≤ 1 µg/mL | ≤ 1 µg/mL | ≤ 1 µg/mL | – | – | – | – | – | – | – | – | – | – | – |
| NC[C@H]1O[C@H](O[C@H]2[C@H](O)[C@@H](O[C@H]3O[C@H](CO)[C@@H](O)[C@H](N)[C@H]3O)[C@H](N)C[C@@H]2N)[C@H](O)[C@@H](O)[C@@H]1O [Kanamycin, kanamycin, reference compound] | – | – | – | – | – | 4 µg/mL (≈ 8.26 µM) | 4 µg/mL (≈ 8.26 µM) | 4 µg/mL (≈ 8.26 µM) | 8 µg/mL (≈ 16.5 µM) | 4.8 µg/mL | – | – | – | – | – | – |
| KKLLKWLLKW-NH2 [WALK244.06] | – | – | – | – | – | 3 µg/mL | 16 µg/mL | 2 µg/mL | 16 µg/mL | 6.3 µg/mL | 32 µg/mL | – | – | – | – | – |
| KLLKWLKKWL-NH2 [WALK244.05] | – | – | – | – | – | 2 µg/mL | 2 µg/mL | 2 µg/mL | 4 µg/mL | 2.4 µg/mL | 32 µg/mL | near-complete NO inhibition | dose-dependent inhibitory effect | no significant cytotoxicity | – | – |
| KLLKWLLKW-NH2 [WALK243.05] | – | – | – | – | – | 2 µg/mL | 2 µg/mL | 2 µg/mL | 16 µg/mL | 3.4 µg/mL | 64 µg/mL | – | – | – | did not demonstrate significant cytotoxicity | – |
| KWLKKLLKWL-NH2 [WALK244.09] | – | – | – | – | – | 2 µg/mL | 2 µg/mL | ≤1 µg/mL | 2 µg/mL | ≤1.7 µg/mL | 8 µg/mL | – | – | – | – | 80.7% |
| KWLLKLLKW-NH2 [WALK243.09] | – | – | – | – | – | 4 µg/mL | 8 µg/mL | 4 µg/mL | 16 µg/mL | 6.7 µg/mL | 64 µg/mL | – | – | – | – | – |
| KWLLKWLKKL-NH2 [WALK244.02] | – | – | – | – | – | 2 µg/mL | 2 µg/mL | 2 µg/mL | 8 µg/mL | 2.8 µg/mL | 32 µg/mL | – | dose-dependent inhibitory effect | no significant cytotoxicity | – | – |
| KWLLKWLLK-NH2 [WALK243.02] | – | – | – | – | – | 4 µg/mL | 4 µg/mL | 4 µg/mL | 16 µg/mL | 5.7 µg/mL | 64 µg/mL | – | – | – | did not demonstrate significant cytotoxicity | 6.7% |
| LKKWLKWLL-NH2 [WALK243.07] | – | – | – | – | – | 2 µg/mL | 2 µg/mL | 2 µg/mL | 4 µg/mL | 2.4 µg/mL | 16 µg/mL | – | – | – | – | – |
| LKKWLKWLLK-NH2 [WALK244.07] | – | – | – | – | – | 2 µg/mL | 2 µg/mL | 2 µg/mL | 8 µg/mL | 2.8 µg/mL | 32 µg/mL | – | dose-dependent inhibitory effect | no significant cytotoxicity | – | – |
| LKWLKKLLKW-NH2 [WALK244.10] | – | – | – | – | – | 2 µg/mL | 8 µg/mL | 2 µg/mL | 8 µg/mL | 4.0 µg/mL | 32 µg/mL | – | – | – | – | – |
| LKWLKWLLK-NH2 [WALK243.06] | – | – | – | – | – | 2 µg/mL | 2 µg/mL | 2 µg/mL | 8 µg/mL | 2.8 µg/mL | 32 µg/mL | – | – | – | did not demonstrate significant cytotoxicity | – |
| LKWLLKWLK-NH2 [WALK243.03] | – | – | – | – | – | 4 µg/mL | 8 µg/mL | 4 µg/mL | 16 µg/mL | 6.7 µg/mL | 32 µg/mL | – | – | – | – | – |
| LKWLLKWLKK-NH2 [WALK244.03] | – | – | – | – | – | 8 µg/mL | 8 µg/mL | 8 µg/mL | 32 µg/mL | 11.3 µg/mL | 64 µg/mL | – | – | – | – | – |
| WLKKLLKWL-NH2 [WALK243.08] | – | – | – | – | – | 2 µg/mL | 2 µg/mL | 2 µg/mL | 2 µg/mL | 2.0 µg/mL | 8 µg/mL | – | – | – | – | – |
| WLKKLLKWLK-NH2 [WALK244.08] | – | – | – | – | – | ≤1 µg/mL | 2 µg/mL | 2 µg/mL | 4 µg/mL | ≤2.0 µg/mL | 8 µg/mL | – | – | – | – | – |
| WLKKWLKKLL-NH2 [WALK244.01] | – | – | – | – | – | 2 µg/mL | 2 µg/mL | ≤1 µg/mL | 2 µg/mL | ≤1.7 µg/mL | 16 µg/mL | – | – | – | – | – |
| WLLKWLKKL-NH2 [WALK243.01] | – | – | – | – | – | 4 µg/mL | 4 µg/mL | 4 µg/mL | 8 µg/mL | 4.8 µg/mL | 32 µg/mL | – | – | – | – | – |
